ChEMBL document CHEMBL5370655

How the values were obtained:
[1] = target: Epidermal growth factor receptor (Homo sapiens, UniProt P00533, L858R)
[2] = Induction of cell cycle arrest in human H1975-TM cells assessed as accumulation at G2/M phase at 250 nM measured after 24 hrs by RNase A/propidium iodide staining based flow cytometric analysis (reference value: 17.6 %); type: functional
[3] = Toxicity in BALB/c mouse xenografted with human H1975-TM cells assessed as appearance of lesions in liver at 25 to 100 mg/kg, po measured after 25 days by hematoxylin-eosin staining based analysis; type: organism-based; settings: in vivo, 600 h, dose 25-100 mg/kg, time 25 day
[4] = Cmax in Sprague-Dawley rat at 50 mg/kg, po measured upto 24 hrs by HPLC-MS/MS analysis; type: ADME, organism-based; parameters: dose 50 mg/kg, time < 24 hrs, route po; settings: in vivo
[5] = Antitumor activity against human H1975-TM cells xenografted in BALB/c mouse assessed as tumor growth inhibition at 100 mg/kg, po measured after 25 days; type: functional; settings: time 25 day
[6] = target: Epidermal growth factor receptor (Homo sapiens, UniProt P00533, C797S/L858R/T790M)
[7] = MRT (0 to infinity) in Sprague-Dawley rat at 50 mg/kg, po measured upto 24 hrs by HPLC-MS/MS analysis; type: ADME, organism-based; settings: in vivo
[8] = Induction of cell cycle arrest in human H1975-TM cells assessed as accumulation at S phase at 250 nM measured after 24 hrs by RNase A/propidium iodide staining based flow cytometric analysis (reference value: 18.1 %); type: functional
[9] = Induction of cell cycle arrest in human H1975-TM cells assessed as accumulation at S phase at 500 nM measured after 24 hrs by RNase A/propidium iodide staining based flow cytometric analysis (reference value: 18.1 %); type: functional
[10] = AUC (0 to infinity) in Sprague-Dawley rat at 5 mg/kg, iv measured upto 24 hrs by HPLC-MS/MS analysis; type: ADME, organism-based; parameters: dose 5 mg/kg, time < 24 hrs, route iv; settings: in vivo

Epidermal growth factor receptor (Homo sapiens, UniProt P00533, L858R), sequence (P00533 25-1210 L858R limits assumed): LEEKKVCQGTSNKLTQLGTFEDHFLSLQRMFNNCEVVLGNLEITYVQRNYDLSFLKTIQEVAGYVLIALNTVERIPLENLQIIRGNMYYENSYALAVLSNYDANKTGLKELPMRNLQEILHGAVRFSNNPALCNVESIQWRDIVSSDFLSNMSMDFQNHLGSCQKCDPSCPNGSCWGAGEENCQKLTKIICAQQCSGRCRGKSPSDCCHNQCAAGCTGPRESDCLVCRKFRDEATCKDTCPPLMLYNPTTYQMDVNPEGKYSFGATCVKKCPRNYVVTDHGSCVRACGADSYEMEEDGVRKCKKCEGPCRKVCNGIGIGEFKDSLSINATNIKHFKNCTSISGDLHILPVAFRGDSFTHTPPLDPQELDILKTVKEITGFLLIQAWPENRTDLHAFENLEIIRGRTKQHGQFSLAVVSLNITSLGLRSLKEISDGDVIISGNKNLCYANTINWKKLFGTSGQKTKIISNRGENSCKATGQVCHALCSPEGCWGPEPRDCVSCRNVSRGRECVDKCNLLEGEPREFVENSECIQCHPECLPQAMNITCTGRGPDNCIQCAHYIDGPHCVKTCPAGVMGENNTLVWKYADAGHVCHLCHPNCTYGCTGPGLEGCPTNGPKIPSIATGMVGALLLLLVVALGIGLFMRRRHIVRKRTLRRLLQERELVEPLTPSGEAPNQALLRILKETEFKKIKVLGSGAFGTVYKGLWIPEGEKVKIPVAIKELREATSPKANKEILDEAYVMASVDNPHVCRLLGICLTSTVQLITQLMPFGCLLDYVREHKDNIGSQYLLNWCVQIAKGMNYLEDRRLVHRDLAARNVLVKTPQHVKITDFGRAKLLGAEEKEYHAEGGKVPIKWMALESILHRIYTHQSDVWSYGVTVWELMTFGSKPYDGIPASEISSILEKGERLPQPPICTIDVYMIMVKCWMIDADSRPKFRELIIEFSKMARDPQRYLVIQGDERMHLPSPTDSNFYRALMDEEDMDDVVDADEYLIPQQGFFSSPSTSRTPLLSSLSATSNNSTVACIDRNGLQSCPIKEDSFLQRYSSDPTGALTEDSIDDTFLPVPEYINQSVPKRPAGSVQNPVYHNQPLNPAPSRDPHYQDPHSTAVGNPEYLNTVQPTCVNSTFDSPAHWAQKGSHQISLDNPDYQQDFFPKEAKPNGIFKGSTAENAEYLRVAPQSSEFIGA
Epidermal growth factor receptor (Homo sapiens, UniProt P00533, C797S/L858R/T790M), sequence (P00533 25-1210 T790M/C797S/L858R limits assumed): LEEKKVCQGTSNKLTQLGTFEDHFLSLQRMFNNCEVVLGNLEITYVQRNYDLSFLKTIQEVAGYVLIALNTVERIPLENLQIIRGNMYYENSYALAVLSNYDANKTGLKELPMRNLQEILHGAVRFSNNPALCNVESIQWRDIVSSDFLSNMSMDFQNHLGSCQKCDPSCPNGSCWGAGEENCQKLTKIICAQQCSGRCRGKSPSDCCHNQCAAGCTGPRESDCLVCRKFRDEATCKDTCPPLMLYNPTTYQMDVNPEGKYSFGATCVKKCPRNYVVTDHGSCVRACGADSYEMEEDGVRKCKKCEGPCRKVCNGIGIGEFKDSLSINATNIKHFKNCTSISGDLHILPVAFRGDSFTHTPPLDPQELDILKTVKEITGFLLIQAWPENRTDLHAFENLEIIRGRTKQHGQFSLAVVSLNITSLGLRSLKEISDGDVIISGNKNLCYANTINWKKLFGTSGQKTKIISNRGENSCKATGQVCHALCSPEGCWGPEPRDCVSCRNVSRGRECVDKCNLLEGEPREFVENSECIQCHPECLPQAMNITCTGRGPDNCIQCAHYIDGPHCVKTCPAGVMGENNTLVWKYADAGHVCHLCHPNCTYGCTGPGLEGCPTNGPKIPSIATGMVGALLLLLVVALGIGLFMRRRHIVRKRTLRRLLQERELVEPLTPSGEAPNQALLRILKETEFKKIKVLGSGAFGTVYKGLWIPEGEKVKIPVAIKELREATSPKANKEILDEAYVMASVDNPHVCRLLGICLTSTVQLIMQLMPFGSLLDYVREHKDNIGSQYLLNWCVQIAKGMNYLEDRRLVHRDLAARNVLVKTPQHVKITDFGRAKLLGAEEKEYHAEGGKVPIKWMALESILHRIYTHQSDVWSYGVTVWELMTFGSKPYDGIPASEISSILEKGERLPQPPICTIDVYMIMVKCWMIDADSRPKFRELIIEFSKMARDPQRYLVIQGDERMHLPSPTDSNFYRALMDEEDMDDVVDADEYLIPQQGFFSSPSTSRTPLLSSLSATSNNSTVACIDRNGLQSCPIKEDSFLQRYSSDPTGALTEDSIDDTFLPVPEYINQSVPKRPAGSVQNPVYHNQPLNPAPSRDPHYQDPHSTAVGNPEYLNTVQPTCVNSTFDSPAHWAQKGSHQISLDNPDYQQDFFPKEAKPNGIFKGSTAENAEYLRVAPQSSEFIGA

- IC50 [1]: 0.003 µM
- Cmax [4]: 404 ng/mL
- IC50 [6]: 0.261 µM
- MRT inf [7]: 5.43 h
- AUC(0-inf) [10]: 1560 ng·h/mL
Structure (SMILES): CCS(=O)(=O)N1CCC(c2nc(-c3ccc(F)cc3)c(-c3ccnc(Nc4ccc5c(ccn5CCN(C)C)c4)n3)s2)CC1
- Activity [2]: 14%
- Activity [3]: Non-Toxic
- TGI [5]: 62.9%
- Activity [8]: 15.7%
- Activity [9]: 10.3%
